Molecules are shown by their SMILES.

Data on 45 compounds can be found in patent US20230079819A1, “COMPOUNDS AND USES THEREOF” (Foghorn Therapeutics Inc., priority 2019, published 2023).

The target in one experiment is T1, BRG-1 (Homo sapiens, UniProt P51532).
T1 construct: made in house; host or cells: High Five insect cells
In words: ATPase catalytic activity of BRG-1, ADP-Glo in vitro biochemical assay. The following applies: ATPase catalytic activity, 30 nM BRG-1, 400 μM ATP, read-out: BRG1 IP50 (μM)*.

The next experiment addresses T2, BRM (Homo sapiens, UniProt P51531).
T2 construct: made in house; host or cells: High Five insect cells
Kind of experiment: ATPase catalytic activity of BRM, ADP-Glo in vitro biochemical assay. The following applies: ATPase catalytic activity, 30 nM BRM, 400 μM ATP, read-out: BRM IP50 (μM)*.

T2 sequence (P51531 whole entry): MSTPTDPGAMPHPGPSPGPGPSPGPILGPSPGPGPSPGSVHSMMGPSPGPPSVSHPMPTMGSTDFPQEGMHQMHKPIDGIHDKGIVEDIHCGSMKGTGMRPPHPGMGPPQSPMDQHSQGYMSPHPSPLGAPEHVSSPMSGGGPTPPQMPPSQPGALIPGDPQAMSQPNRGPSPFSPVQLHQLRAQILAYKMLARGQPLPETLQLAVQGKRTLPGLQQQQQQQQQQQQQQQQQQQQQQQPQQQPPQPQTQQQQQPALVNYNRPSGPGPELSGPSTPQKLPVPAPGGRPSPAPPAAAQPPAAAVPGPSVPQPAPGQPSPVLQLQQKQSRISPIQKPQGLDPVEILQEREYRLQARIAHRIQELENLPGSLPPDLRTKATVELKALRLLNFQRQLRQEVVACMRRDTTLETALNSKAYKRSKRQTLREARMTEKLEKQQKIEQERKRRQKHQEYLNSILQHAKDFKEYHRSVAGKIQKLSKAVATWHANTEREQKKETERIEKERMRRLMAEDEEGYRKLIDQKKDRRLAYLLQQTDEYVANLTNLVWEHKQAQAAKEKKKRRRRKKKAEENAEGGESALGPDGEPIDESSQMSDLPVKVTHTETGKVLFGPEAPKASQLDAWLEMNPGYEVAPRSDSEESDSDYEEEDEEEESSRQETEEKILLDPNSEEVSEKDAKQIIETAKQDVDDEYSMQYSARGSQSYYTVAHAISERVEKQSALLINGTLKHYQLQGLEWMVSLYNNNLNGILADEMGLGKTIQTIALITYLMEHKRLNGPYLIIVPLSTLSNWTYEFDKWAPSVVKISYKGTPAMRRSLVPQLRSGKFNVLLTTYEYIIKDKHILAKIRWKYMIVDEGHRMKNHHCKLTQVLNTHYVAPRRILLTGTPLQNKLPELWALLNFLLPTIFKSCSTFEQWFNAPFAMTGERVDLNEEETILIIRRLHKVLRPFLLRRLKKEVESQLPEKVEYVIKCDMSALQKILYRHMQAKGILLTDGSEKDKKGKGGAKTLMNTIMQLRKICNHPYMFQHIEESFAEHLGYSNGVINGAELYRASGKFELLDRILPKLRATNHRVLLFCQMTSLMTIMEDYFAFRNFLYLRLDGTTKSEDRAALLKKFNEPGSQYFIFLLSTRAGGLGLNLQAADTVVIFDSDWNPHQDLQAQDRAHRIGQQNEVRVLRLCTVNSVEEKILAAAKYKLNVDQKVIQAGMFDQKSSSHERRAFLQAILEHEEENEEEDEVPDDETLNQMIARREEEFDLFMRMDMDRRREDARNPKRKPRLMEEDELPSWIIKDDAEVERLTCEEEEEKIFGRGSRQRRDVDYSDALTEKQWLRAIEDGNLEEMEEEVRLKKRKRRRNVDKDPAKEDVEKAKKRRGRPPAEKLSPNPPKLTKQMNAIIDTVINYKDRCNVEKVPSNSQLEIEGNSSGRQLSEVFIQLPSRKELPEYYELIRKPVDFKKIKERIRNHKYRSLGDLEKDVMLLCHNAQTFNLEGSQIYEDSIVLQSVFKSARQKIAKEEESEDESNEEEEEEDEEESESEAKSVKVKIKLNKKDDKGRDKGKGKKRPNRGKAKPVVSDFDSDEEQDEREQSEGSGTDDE
T1 sequence (P51532 whole entry): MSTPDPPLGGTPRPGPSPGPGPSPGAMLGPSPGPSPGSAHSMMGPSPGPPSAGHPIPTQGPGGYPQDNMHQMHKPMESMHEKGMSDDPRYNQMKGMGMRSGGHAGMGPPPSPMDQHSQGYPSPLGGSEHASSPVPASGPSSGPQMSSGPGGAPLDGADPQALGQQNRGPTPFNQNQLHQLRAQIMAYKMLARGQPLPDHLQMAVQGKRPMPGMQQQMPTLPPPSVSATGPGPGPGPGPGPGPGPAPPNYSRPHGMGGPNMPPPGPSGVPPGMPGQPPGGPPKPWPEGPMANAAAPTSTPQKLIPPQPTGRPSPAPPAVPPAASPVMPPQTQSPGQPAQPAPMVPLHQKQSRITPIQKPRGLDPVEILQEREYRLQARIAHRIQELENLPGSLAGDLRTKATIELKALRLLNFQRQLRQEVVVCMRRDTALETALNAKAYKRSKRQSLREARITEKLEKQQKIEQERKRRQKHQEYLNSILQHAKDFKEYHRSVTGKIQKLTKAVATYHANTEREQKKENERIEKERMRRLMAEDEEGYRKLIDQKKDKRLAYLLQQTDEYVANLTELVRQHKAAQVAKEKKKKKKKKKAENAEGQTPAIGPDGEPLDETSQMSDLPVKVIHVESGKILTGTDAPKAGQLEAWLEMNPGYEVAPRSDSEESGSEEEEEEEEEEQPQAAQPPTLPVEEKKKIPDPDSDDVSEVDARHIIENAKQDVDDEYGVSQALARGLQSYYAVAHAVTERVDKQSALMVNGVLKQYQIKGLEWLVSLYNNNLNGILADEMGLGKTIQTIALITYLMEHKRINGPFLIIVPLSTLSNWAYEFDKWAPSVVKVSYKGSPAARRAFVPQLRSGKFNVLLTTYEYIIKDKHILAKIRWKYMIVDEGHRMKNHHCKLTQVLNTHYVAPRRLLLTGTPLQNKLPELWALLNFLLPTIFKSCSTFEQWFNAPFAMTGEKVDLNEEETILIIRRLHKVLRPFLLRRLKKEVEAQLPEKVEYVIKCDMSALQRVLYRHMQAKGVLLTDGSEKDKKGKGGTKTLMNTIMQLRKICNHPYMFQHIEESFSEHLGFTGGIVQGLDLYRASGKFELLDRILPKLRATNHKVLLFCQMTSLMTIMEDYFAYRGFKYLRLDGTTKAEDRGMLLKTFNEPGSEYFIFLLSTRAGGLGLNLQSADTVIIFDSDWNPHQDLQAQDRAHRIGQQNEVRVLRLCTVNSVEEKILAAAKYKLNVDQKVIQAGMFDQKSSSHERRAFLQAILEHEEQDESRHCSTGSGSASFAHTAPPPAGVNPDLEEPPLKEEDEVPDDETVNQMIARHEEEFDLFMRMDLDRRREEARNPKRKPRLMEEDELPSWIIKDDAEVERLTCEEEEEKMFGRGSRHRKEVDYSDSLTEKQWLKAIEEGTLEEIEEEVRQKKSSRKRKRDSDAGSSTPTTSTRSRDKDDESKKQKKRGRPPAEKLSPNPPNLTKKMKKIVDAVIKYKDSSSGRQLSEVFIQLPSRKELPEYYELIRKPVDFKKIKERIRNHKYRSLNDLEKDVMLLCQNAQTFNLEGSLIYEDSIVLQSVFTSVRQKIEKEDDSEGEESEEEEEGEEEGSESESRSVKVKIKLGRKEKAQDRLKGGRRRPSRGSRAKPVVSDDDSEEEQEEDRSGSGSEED

`CS(=O)(=O)n1ccc(C(=O)NCC(=O)Nc2cccc(-c3cccc(-c4ccncc4)c3)n2)c1` [Compound 156, 1-(methylsulfonyl)-N-(2-oxo-2-((6-(3-(pyridin-4-yl)phenyl)pyridin-2-yl)amino)ethyl)-1H-pyrrole-3-carboxamide]: the IC50 at BRG-1 and at BRM was over 0.01 µM each time.
On to `CC1(C)OCC12CN(c1cccc(-c3csc(NC(=O)CNC(=O)c4ccn(S(C)(=O)=O)c4)n3)c1)C2` [Compound 157], for which the IC50 on BRG-1 and on BRM was over 0.1 µM throughout.
In the case of `C[C@H]1CN(c2cccc(-c3csc(NC(=O)CNC(=O)c4ccn(S(C)(=O)=O)c4)n3)c2)[C@@H](C)CO1` [Compound 160], the IC50 was over 0.1 µM on BRG-1 and over 0.01 µM on BRM.
As to `CO[C@@H]1CCCN(c2cccc(-c3csc(NC(=O)CNC(=O)c4ccn(S(C)(=O)=O)c4)n3)c2)C1` [Compound 161], the IC50 at BRG-1 and on BRM was over 0.01 µM in each case.
Turning to `C[C@@H]1CN(c2cccc(-c3csc(NC(=O)CNC(=O)c4ccn(C(C)(C)C#N)c4)n3)c2)C[C@H](C)O1` [Compound 162], the IC50 at BRG-1 and at BRM was under 0.01 µM in each case.
Take `C[C@@H]1CN(c2cccc(-c3csc(NC(=O)CNC(=O)c4ccn(C5(C#N)CC5)c4)n3)c2)C[C@H](C)O1` [Compound 163]: the IC50 on BRG-1 is over 0.01 µM; at BRM, under 0.01 µM.
On to `CC1(C)CN(c2cccc(-c3csc(NC(=O)CNC(=O)c4ccn(S(C)(=O)=O)c4)n3)c2)CC[C@H]1O` [Compound 164], for which the IC50 is over 0.01 µM on BRG-1 and under 0.01 µM on BRM.
`CC1(C)CN(c2cccc(-c3csc(NC(=O)CNC(=O)c4ccn(S(C)(=O)=O)c4)n3)c2)CC[C@@H]1O` [Compound 165]: the IC50 on BRG-1 and at BRM was over 0.01 µM throughout.
Turning to `CO[C@@H]1CN(c2cccc(-c3csc(NC(=O)CNC(=O)c4ccn(S(C)(=O)=O)c4)n3)c2)C[C@H]1F` [Compound 168], the IC50 on BRG-1 and on BRM was over 0.01 µM each time.
For `CS(=O)(=O)n1ccc(C(=O)NCC(=O)Nc2nc(-c3cccc(N4CCC(CO)(C(F)(F)F)C4)c3)cs2)c1` (stereo not drawn) [Compound 169], the IC50 on BRG-1 and on BRM was over 0.1 µM each time.
`CS(=O)(=O)n1ccc(C(=O)NCC(=O)Nc2nc(-c3cccc(N4CC5(CCCCO5)C4)c3)cs2)c1` [Compound 170]: the IC50 on BRG-1 and on BRM was over 0.01 µM throughout.
Consider `CS(=O)(=O)n1ccc(C(=O)NCC(=O)Nc2nc(-c3cccc(N4CC5(CCCOC5)C4)c3)cs2)c1` [Compound 171], for which the IC50 on BRG-1 and on BRM was over 0.1 µM in each case.
Turning to `CS(=O)(=O)n1ccc(C(=O)NCC(=O)Nc2nc(-c3cccc(N4CC(n5ccnc5)C4)c3)cs2)c1` [Compound 172], the figures for the IC50 on BRG-1 and at BRM were over 0.1 µM and over 0.01 µM, respectively.
Regarding `CS(=O)(=O)n1ccc(C(=O)NCC(=O)Nc2nc(-c3cccc(N4CC(n5cccn5)C4)c3)cs2)c1` [Compound 174], the IC50 at BRG-1 and at BRM was over 0.01 µM in each case.
With `CN(C)C1CN(c2cccc(-c3csc(NC(=O)CNC(=O)c4ccn(S(C)(=O)=O)c4)n3)c2)C1` [Compound 175], the IC50 at BRG-1 and at BRM was over 0.01 µM each time.
`CS(=O)(=O)n1ccc(C(=O)NCC(=O)Nc2nc(-c3cccc(N4CC(O)(C(F)(F)F)C4)c3)cs2)c1` [Compound 176]: the IC50 on BRG-1 and on BRM was over 0.1 µM each time.
Regarding `CS(=O)(=O)n1ccc(C(=O)NCC(=O)Nc2nc(-c3cccc(N4CC[C@H](O)C4)c3)cs2)c1` [Compound 177], the IC50 at BRG-1 and at BRM was over 0.01 µM in each case.
For the compound `CS(=O)(=O)n1ccc(C(=O)NCC(=O)Nc2nc(-c3cccc(N4CC[C@@H](O)C4)c3)cs2)c1` [Compound 178], the IC50 at BRG-1 and on BRM was under 0.01 µM throughout.
In the case of `CC1(O)CN(c2cccc(-c3csc(NC(=O)CNC(=O)c4ccn(S(C)(=O)=O)c4)n3)c2)C1` [Compound 179], the IC50 on BRG-1 and at BRM was over 0.01 µM each time.
Regarding `CO[C@H]1CN(c2cccc(-c3csc(NC(=O)CNC(=O)c4ccn(S(C)(=O)=O)c4)n3)c2)C[C@@H]1F` [Compound 180], the IC50 on BRG-1 and on BRM was over 0.01 µM in each case.
For `C[C@@H]1CN(c2cccc(-c3nc(NC(=O)CNC(=O)c4ccn(S(C)(=O)=O)c4)sc3F)c2)C[C@H](C)O1` [Compound 181, N-[2-[[4-[3-[(cis)-2,6-dimethylmorpholin-4-yl]phenyl]-5-fluoro-thiazol-2-yl]amino]-2-oxo-ethyl]-1-methylsulfonyl-pyrrole-3-carboxamide], the IC50 at BRG-1 and on BRM was over 0.01 µM throughout.
With `C[C@@H]1CN(c2cccc(-c3csc(NC(=O)CNC(=O)c4ccn(S(C)(=O)=O)c4)n3)c2)CC[C@H]1O` [Compound 182, N-[2-[[4-[3-[(3R,4R)-4-hydroxy-3-methyl-1-piperidyl]phenyl]thiazol-2-yl]amino]-2-oxo-ethyl]-1-methylsulfonyl-pyrrole-3-carboxamide], the IC50 on BRG-1 and on BRM was under 0.01 µM each time.
For the compound `C[C@H]1CN(c2cccc(-c3csc(NC(=O)CNC(=O)c4ccn(S(C)(=O)=O)c4)n3)c2)CC[C@@H]1O` [Compound 183, N-[2-[[4-[3-[(3S,4S)-4-hydroxy-3-methyl-1-piperidyl]phenyl]thiazol-2-yl]amino]-2-oxo-ethyl]-1-methylsulfonyl-pyrrole-3-carboxamide], the IC50 on BRG-1 and on BRM was under 0.01 µM throughout.
In the case of `COCCOC1CN(c2cccc(-c3csc(NC(=O)CNC(=O)c4ccn(S(C)(=O)=O)c4)n3)c2)C1` [Compound 184], the IC50 on BRG-1 and at BRM was over 0.01 µM throughout.
As to `CC1(n2ccc(C(=O)NCC(=O)Nc3nc(-c4cccc(N5CCC5)c4)cs3)c2)COC1` [Compound 185], the IC50 on BRG-1 and on BRM was over 0.01 µM in each case.
Regarding `CC(C)(C)n1ccc(C(=O)NCC(=O)Nc2nc(-c3cccc(N4CCC4)c3)cs2)c1` [Compound 186], the IC50 at BRG-1 and at BRM was over 0.01 µM each time.
For the compound `C[C@@H]1CN(c2cccc(-c3csc(NC(=O)CNC(=O)c4ccn(S(C)(=O)=O)c4)n3)c2)CC[C@@H]1O` [Compound 188], the IC50 on BRG-1 was over 0.01 µM; at BRM, under 0.01 µM.
For `CN(C)C(=O)Cn1ccc(-c2cccc(-c3csc(NC(=O)CNC(=O)c4ccn(S(C)(=O)=O)c4)n3)c2)n1` [Compound 189], in that order: under 0.01 µM and under 0.01 µM.
`CS(=O)(=O)n1ccc(C(=O)NCC(=O)Nc2nc(-c3cccc(N4CC[C@H](O)[C@@H](F)C4)c3)cs2)c1` [Compound 190]: the IC50 at BRG-1 and at BRM was under 0.01 µM each time.
In the case of `CS(=O)(=O)n1ccc(C(=O)NCC(=O)Nc2nc(-c3cccc(N4CC[C@H](O)[C@H](F)C4)c3)cs2)c1` [Compound 191], the figures for the IC50 at BRG-1 and on BRM were over 0.01 µM and under 0.01 µM, respectively.
For `COCCS(=O)(=O)n1ccc(C(=O)NCC(=O)Nc2nc(-c3cccc(N4C[C@@H](C)O[C@@H](C)C4)c3)cs2)c1` [Compound 193], in that order: over 0.01 µM and over 0.01 µM.
On the same counts, the results for `CC1(C)CN(c2cccc(-c3csc(NC(=O)CNC(=O)c4ccn(S(C)(=O)=O)c4)n3)c2)CCC1O` (stereo not drawn) [Compound 194] are over 0.01 µM and under 0.01 µM.
Turning to `CS(=O)(=O)n1ccc(C(=O)NCC(=O)Nc2nc(-c3cccc(N4CC[C@@H](O)[C@H](F)C4)c3)cs2)c1` [Compound 195], the IC50 on BRG-1 and on BRM was under 0.01 µM in each case.
For the compound `CS(=O)(=O)n1ccc(C(=O)NCC(=O)Nc2nc(-c3cccc(N4CC[C@@H](O)[C@@H](F)C4)c3)cs2)c1` [Compound 196], the IC50 at BRG-1 and at BRM was under 0.01 µM throughout.
In the case of `CS(=O)(=O)n1ccc(C(=O)NCC(=O)Nc2nc(-c3cccc(N4CCC[C@H](C#N)C4)c3)cs2)c1` [Compound 197], the values for the IC50 at BRG-1 and at BRM were over 0.01 µM and under 0.01 µM, respectively.
As for `CO[C@H]1CN(c2cccc(-c3csc(NC(=O)CNC(=O)c4ccn(S(C)(=O)=O)c4)n3)c2)C[C@H]1OC` [Compound 199], the IC50 on BRG-1 and at BRM was over 0.01 µM in each case.
For the compound `COC[C@H]1CCN(c2cccc(-c3csc(NC(=O)CNC(=O)c4ccn(S(C)(=O)=O)c4)n3)c2)C1` [Compound 200], the IC50 on BRG-1 and on BRM was over 0.01 µM each time.
With `COC[C@@H]1CCN(c2cccc(-c3csc(NC(=O)CNC(=O)c4ccn(S(C)(=O)=O)c4)n3)c2)C1` [Compound 201], the IC50 at BRG-1 was over 0.01 µM; at BRM, under 0.01 µM.
On to `CS(=O)(=O)n1ccc(C(=O)NCC(=O)Nc2nc(-c3cccc(N4CCC5(CC4)COC5)c3)cs2)c1` [Compound 202], for which the IC50 on BRG-1 and at BRM was over 0.01 µM in each case.
Regarding `CC1(C)CN(c2cccc(-c3csc(NC(=O)CNC(=O)c4ccn(S(C)(=O)=O)c4)n3)c2)CC(C)(C)O1` [Compound 203], the IC50 at BRG-1 and at BRM was over 0.01 µM each time.
With `CS(=O)(=O)n1ccc(C(=O)NCC(=O)Nc2nc(-c3cccc(N4CCCC5(COC5)C4)c3)cs2)c1` [Compound 204], the IC50 on BRG-1 and at BRM was over 0.01 µM in each case.
On to `C[C@]1(O)CCCN(c2cccc(-c3csc(NC(=O)CNC(=O)c4ccn(S(C)(=O)=O)c4)n3)c2)C1` [Compound 205], for which the IC50 on BRG-1 and on BRM was over 0.01 µM throughout.
Turning to `C[C@@]1(O)CCCN(c2cccc(-c3csc(NC(=O)CNC(=O)c4ccn(S(C)(=O)=O)c4)n3)c2)C1` [Compound 206], the IC50 on BRG-1 was over 0.01 µM; on BRM, under 0.01 µM.
Turning to `CS(=O)(=O)n1ccc(C(=O)NCC(=O)Nc2nc(-c3cccc(N4C[C@H]5C[C@H]5C4)c3)cs2)c1` [Compound 207], the IC50 at BRG-1 and at BRM was over 0.01 µM in each case.
Regarding `CS(=O)(=O)n1ccc(C(=O)NCC(=O)Nc2nc(-c3cccc(N4CCC[C@H](F)C4)c3)cs2)c1` [Compound 208], the IC50 at BRG-1 and on BRM was over 0.01 µM each time.
